The values that follow come from patent publication US12275731B2, “Azaindole inhibitors of wild-type and mutant forms of LRRK2” (DANA-FARBER CANCER INSTITUTE, INC., priority 2018, dated 2025).

Holding throughout (assay): KinomeScan profiling
Format in all cases: binding

The target in assay [1] is T1, TYK2(JH1domain-catalytic) (Homo sapiens, UniProt P29597).
T1 construct: tyrosine kinase 2 (TYK2)(JH1domain-catalytic)
T1 sequence (P29597 897-1176 limits assumed): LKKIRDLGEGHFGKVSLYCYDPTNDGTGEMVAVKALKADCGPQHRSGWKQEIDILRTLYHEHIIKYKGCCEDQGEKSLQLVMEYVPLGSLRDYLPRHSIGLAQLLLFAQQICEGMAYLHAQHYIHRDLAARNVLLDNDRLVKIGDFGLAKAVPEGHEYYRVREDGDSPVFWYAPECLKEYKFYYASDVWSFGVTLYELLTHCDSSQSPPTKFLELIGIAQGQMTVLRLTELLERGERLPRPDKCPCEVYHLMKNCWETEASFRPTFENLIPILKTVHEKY
As to conditions: read-out: % control. Summed up: (§1)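 Test agents were profiled at a single concentration of 1 μM (DMSO vehicle) on a near-complete set of 468 kinases. Signal is reported relative to vehicle (100%) and a fully displacing control (0%).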

The target of a further assay is T2, PIP5K2B (Homo sapiens, UniProt P78356).
T2 construct: purchased KinomeScan® (panel service)
T2 sequence (P78356 1-416): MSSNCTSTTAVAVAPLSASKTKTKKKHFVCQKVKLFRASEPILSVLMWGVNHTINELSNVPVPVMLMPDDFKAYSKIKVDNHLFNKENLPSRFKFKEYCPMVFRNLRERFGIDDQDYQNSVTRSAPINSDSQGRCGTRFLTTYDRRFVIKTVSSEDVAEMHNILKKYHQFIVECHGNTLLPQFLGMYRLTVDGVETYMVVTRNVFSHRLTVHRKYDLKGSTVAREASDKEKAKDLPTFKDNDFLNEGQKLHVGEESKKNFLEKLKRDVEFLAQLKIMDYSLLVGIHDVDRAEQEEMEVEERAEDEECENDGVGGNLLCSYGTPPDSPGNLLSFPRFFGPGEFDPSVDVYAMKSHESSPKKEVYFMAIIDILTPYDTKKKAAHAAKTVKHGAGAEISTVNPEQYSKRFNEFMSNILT
The note with it: read-out: % control. Summed up:
as §1

A further assay addresses T3, AXL (Homo sapiens, UniProt P30530).
T3 construct: purchased KinomeScan®
T3 sequence (P30530 26-894): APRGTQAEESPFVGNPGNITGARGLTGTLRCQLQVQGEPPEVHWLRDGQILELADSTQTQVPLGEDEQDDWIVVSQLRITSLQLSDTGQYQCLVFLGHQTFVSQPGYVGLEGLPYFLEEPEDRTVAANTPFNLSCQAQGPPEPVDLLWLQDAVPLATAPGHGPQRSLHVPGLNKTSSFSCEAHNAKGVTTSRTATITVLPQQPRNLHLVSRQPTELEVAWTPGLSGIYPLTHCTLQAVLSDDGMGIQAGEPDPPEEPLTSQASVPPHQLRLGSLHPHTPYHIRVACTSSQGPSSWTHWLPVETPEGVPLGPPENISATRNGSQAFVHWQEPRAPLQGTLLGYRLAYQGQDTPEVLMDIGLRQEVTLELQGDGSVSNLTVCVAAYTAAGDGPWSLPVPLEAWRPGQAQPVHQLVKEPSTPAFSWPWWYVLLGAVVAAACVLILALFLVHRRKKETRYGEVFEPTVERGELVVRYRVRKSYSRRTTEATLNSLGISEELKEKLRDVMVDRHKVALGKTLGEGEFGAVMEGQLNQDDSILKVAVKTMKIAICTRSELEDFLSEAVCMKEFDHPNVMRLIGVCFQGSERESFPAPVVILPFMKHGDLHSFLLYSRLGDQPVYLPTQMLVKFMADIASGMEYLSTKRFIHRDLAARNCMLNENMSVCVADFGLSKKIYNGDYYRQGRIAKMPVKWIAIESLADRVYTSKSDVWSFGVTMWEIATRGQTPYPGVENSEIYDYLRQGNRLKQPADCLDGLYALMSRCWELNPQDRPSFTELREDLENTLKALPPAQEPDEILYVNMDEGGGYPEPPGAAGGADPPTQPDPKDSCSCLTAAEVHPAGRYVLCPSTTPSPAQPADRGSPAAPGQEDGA
As to conditions: read-out: % control. Summed up:
as §1

Another assay concerns the target T4, STK39 (Homo sapiens, UniProt Q9UEW8).
T4 construct: purchased KinomeScan® (panel service)
As to conditions: STK39, 1 μM; read-out: % control. Summed up: as §1

For a further assay, the target named is T5, EPHA1 (Homo sapiens, UniProt P21709).
T5 sequence (P21709 26-976): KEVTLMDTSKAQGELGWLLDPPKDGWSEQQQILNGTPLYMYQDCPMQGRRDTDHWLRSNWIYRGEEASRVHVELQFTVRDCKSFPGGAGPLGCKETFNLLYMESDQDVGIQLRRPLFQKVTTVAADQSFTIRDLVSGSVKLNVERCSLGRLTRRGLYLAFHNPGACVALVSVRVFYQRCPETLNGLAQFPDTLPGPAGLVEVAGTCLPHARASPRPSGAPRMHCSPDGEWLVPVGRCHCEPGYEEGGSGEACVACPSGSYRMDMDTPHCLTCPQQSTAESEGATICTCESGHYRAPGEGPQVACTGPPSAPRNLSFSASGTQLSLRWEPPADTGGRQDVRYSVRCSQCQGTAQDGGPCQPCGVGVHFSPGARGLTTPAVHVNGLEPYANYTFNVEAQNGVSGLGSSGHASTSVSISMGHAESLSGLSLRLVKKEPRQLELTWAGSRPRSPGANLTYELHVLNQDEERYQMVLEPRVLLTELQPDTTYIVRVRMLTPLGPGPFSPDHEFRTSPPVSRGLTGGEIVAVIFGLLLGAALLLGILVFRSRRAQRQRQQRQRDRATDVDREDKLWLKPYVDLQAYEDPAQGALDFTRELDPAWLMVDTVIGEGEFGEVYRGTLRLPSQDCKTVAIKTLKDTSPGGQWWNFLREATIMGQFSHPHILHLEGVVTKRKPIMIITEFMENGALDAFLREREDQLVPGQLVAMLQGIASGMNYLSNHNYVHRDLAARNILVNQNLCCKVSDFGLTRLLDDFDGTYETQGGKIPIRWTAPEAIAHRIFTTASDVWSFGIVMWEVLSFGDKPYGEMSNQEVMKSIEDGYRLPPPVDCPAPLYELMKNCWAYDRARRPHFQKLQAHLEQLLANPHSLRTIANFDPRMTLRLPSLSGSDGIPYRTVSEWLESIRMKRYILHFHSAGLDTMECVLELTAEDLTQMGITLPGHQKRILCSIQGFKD
As to conditions: EPHA1, 1 μM; read-out: % control. Summed up:
as §1

For the compound `CNc1c(-c2ccc(C(=O)N3CCC(N4CCOCC4)CC3)cc2)cnc2[nH]cc(Cl)c12` [Compound 96, (4-(3-chloro-4-(methylamino)-1H-pyrrolo[2,3-b]pyridin-5-yl)phenyl)(4-morpholinopiperidin-1-yl)methanone], the remaining binding at 1 µM in assay [1] worked out at 29%; at PIP5K2B, 4.9%; at AXL, 33%; at STK39 it was 9.7%; at EPHA1 it was 81%.

As for `O=C(c1ccc(-c2cnc3[nH]cc(Cl)c3c2NC2CCCC2)cc1)N1CCC(N2CCOCC2)CC1` [Compound 101, (4-(3-chloro-4-(cyclopentylamino)-1H-pyrrolo[2,3-b]pyridin-5-yl)phenyl)(4-morpholinopiperidin-1-yl)methanone], the remaining binding at 1 µM in assay [1] amounted to 100%; on PIP5K2B, 12%; at AXL it was 40%; at STK39 it was 80%; at EPHA1 it was 76%.

`CNc1c(-c2cnn([C@H]3CCN(C(C)=O)C[C@@H]3F)c2)cnc2[nH]cc(Cl)c12` [Compound 77, 1-((3S,4S)-4-(4-(3-chloro-4-(methylamino)-1H-pyrrolo[2,3-b]pyridin-5-yl)-1H-pyrazol-1-yl)-3-fluoropiperidin-1-yl)ethan-1-one]: the remaining binding at 1 µM in assay [1] came out at 15%; on PIP5K2B, 3.4%; at AXL it was 8.5%; on STK39 it was 16%; at EPHA1, 83%.
